Assay results: patent US4185116A, “L- and DL- Phenylglycines to treat diseases or conditions attributable to reduced carbohydrate metabolism” (priority 1976, dated 1980)
Counter-ions that a name gives are not always drawn.

Columns and labels:
[1] = system: pyruvate dehydrogenase enzyme; assay: Proportion of active pyruvate dehydrogenase (PDHa/PDHt) in hearts of fat-fed rats after treatment in vivo; parameters: species or system rat; settings: heart; for PDHa/PDHt Ratio, Compound: 0.6 millimoles/kg.
Experimental: The total amount of the enzyme present (PDHt) and the amount which is present in the active form (PDHa) are assessed by a method similar to that described by Taylor et al., Jour. […] The fat-feeding process is found to depress the ratio PDHa/PDHt from a normal value of about 0.7 to a value in the range from 0.05 to 0.2. Treatment of fat-fed rats with L(+)-2-(4-hydroxyphenyl)glycine, either parenterally or orally, increases this ratio in a dose-dependent manner, the threshold doses for this effect being 0.05 millimole/kg. by intravenous injection and in the range 0.1 to 0.2 millimole/kg. by subcutaneous injection or by oral administration. The ratio is increased to a value in the range 0.8-1.0 (i.e., above that for rats on normal diet) by doses of 0.6 millimole/kg. and above.
The increase in the PDHa/PDHt ratio effected by other compounds of formula (I) at a dose level of 0.6 millimoles/kg. is shown in the following Table: […]

[2] = system: pyruvate oxidation by diaphragm tissue from fat-fed rats; assay: Pyruvate oxidation by diaphragm tissue from fat-fed rats (14C-pyruvate into CO2, in vitro); format: cell-based, rat; settings: for activation at 500 µM: concentration of 0.5 mM, read-out: % Stimulation (of pyruvate oxidation)
Experimental: The compounds of formula (I) were tested for their ability to increase pyruvate oxidation as follows:
Diaphragm tissue is obtained from rats fed on a high fat diet similar to "Diet B" described by Zaragoza and Felber, Horm, Metab. Res., 2, 323 (1970). Pyruvate oxidation by such tissue is assessed by measurement of the rate of incorporation of carbon-14 from carbon-14-labelled pyruvate into carbon dioxide in vitro, as described by Bringolf, Eur. Jour. Biochem., 26, 360 (1972). The rate of pyruvate oxidation is depressed by 50-75% compared with that by diaphragm tissue from rats fed on a normal diet. […] The threshold concentration for such stimulation is about 0.25 millimolar and maximum stimulation of 170% is achieved at concentrations of 4 millimolar and above.

[3] = system: glucose oxidation by isolated hearts from starved rats; assay: Glucose oxidation by isolated perfused hearts from starved rats (14C-glucose into CO2); format: cell-based; settings: isolated starved-rat heart
Experimental: The rate of glucose oxidation by isolated hearts from starved rats is measured in a recirculating oxygenated perfusion system, by measuring the rate of incorporation of carbon-14 from carbon-14-labelled glucose into carbon dioxide using a method similar to those described by Morgan et al., Jour. […] The perfusate contains glucose, palmitate, insulin and bovine serum albumen.

[4] = system: heart of anesthetized beagle dogs; assay: Myocardial blood flow and metabolism in fasted, closed-chest, anesthetized, electrically paced beagle dogs; format: in vivo, dog
Experimental: The ability of compounds of formula (I) to reduce oxygen demand and affect the relative utilization of carbohydrate and lipid metabolites in the heart has been assessed by measuring the effect of the compounds on myocardial blood flow and metabolism in fasted, closed-chest, anesthetized beagle dogs, with cardiac catherization to enable simultaneous sampling of coronary sinus and arterial blood to be carried out. Coronary sinus blood flow is measured by the hydrogen gas clearance technique described by Aukland et al., Circulation Res., 14, 164 (1964). The heart is paced electrically at 155 beats/min. and recordings of hemodynamic parameters (blood pressure, left ventricular pressure and the first derivative of the latter) are made continuously. Control measurements of coronary blood flow are made and samples of blood taken at 40 minute intervals, both in an untreated animal and in the same animal dosed with an infusion of isoprenaline ([…].), which both stimulates cardiac contraction and increases plasma free fatty acid levels. The compound of formula (I) is then administered intravenously and measurements are made and samples taken again, 40 minutes and 90 minutes later. The blood samples from the artery and coronary sinus are analyzed for oxyhemoglobin, pyruvate and free fatty acid (FFA) content, differences between those of the arterial and coronary sinus blood, when multiplied by coronary blood flow, being a measure of oxygen consumption, pyruvate uptake and FFA uptake by the myocardium respectively.

[5] = system: rats in which diabetes has been induced by treatment with streptozotocin; assay: Blood glucose levels in streptozotocin-diabetic rats; format: in vivo, rat
Experimental: The ability of compounds of formula (I) to decrease blood glucose levels has been assessed by measuring their effect on blood glucose levels in rats in which diabetes has been induced by treatment with streptozotocin (85 mg/kg.). Four days after such treatment, a number of rats are given 1 millimole/kg of the compound by intraperitoneal injection and a similar number are given placebo. The doses are repeated after a further 24 hours and 48 hours. Blood samples are taken from a tail vein immediately before each dosage (which is 2 hours after removal of the animals from food) and 1, 2 and 3 hours after the third dose.

[6] = 0.02 to 0.1 millimole/kg. intravenously

Compound: NC(C(=O)O)c1ccc(O)cc1 (racemic) [DL (racemic)-2-(4-hydroxyphenyl)glycine]
- effect on PDHa/PDHt ratio relative to the L(+)-isomer ([1]; same dose levels): only half, or less than half, the effect of the L(+)-isomer
- effect on pyruvate oxidation relative to the L(+)-isomer [2]: approximately half that of the L(+)-isomer

Compound: NC(C(=O)[O-])c1ccc(O)cc1.[Na+] (racemic) [DL-2-(4-hydroxyphenyl)glycine, sodium salt]
- effect on rate of glucose oxidation (predicted, 'will be') [3]: significantly increased

Compound: CC(C)CCOC(=O)[C@@H](N)c1ccc(O)cc1 [3-Methylbutyl L(+)-2-(4-hydroxyphenyl)glycinate]
- PDHa/PDHt Ratio, Compound ([1]; s.c. (subcutaneous)): 0.51
- effects on myocardial pyruvate uptake, blood flow, oxygen consumption and FFA uptake (predicted, 'will be found') [4]: effects similar to L(+)-2-(4-hydroxyphenyl)glycine
- activation at 500 µM ([2]; Rattus norvegicus): 32%

Compound: Br.COc1ccc([C@H](N)C(=O)OCCC(C)C)cc1 [3-methylbutyl L(+)-2-(4-methoxyphenyl)glycinate hydrobromide]
- effect on PDHa/PDHt ratio (predicted, 'will be') [1]: significantly increased

Compound: N[C@@H](C(=O)O)c1ccc(O)cc1 [D(-)-2-(4-hydroxyphenyl)glycine, reference compound]
- effect on PDHa/PDHt ratio ([1]; dose levels up to 1.2 millimole/kg.): very little effect
- effect on pyruvate oxidation ([2]; concentrations up to 4 mM): no significant effect
- effect on rate of glucose oxidation ([3]; 2 millimolar in perfusate): no significant effect

Compound: CC(C)OC(=O)[C@@H](N)c1ccc(O)cc1 [Isopropyl L(+)-2-(4-hydroxyphenyl)glycinate]
- activation at 500 µM ([2]; Rattus norvegicus): 34%

Compound: NC(=O)[C@@H](N)c1ccc(O)cc1 [L(+)-2-(4-hydroxyphenyl)glycinamide]
- PDHa/PDHt Ratio, Compound ([1]; p.o. (oral)): 0.91
- PDHa/PDHt Ratio, Compound ([1]; s.c. (subcutaneous)): 0.93
- effects on myocardial pyruvate uptake, blood flow, oxygen consumption and FFA uptake (predicted, 'will be found') [4]: effects similar to L(+)-2-(4-hydroxyphenyl)glycine
- activation at 500 µM ([2]; Rattus norvegicus): 51%
- effect on rate of glucose oxidation (predicted, 'will be') [3]: significantly increased

Compound: N[C@H](C(=O)O)c1ccc(O)cc1 [L(+)-2-(4-hydroxyphenyl)glycine]
- PDHa/PDHt ratio ([1]; doses of 0.6 millimole/kg. and above, fat-fed untreated 0.05 to 0.2, normal diet about 0.7): 0.8-1.0
- threshold dose for increase of PDHa/PDHt ratio ([1]; intravenous injection): 0.05 millimole/kg.
- effect on hemodynamic parameters (blood pressure, left ventricular pressure and its first derivative) [4, 6]: no effect
- effect on myocardial FFA uptake [4, 6]: generally decreased
- increase of myocardial blood flow [4, 6]: up to 150%
- period of increased myocardial pyruvate uptake after dosing [4, 6]: at least 90 minutes
- decrease of myocardial oxygen consumption ([4]; 0.02 to 0.1 millimole/kg. intravenously, in the presence of isoprenaline): about 20%
- increase of myocardial pyruvate uptake ([4]; 0.02 to 0.1 millimole/kg. intravenously, presence and absence of isoprenaline): at least 2 fold
- blood glucose level after 2 days of treatment (immediately before the third dose) ([5]; 1 millimole/kg intraperitoneal daily, declined from 378± 8, placebo 383± 10, averages for 8 animals): 356± 4 mg/100 ml.
- blood glucose level 2 hours after the third dose (minimum value) ([5]; 1 millimole/kg intraperitoneal, placebo 385± 7, averages for 8 animals): 313± 7 mg/100 ml.
- Emax ([2]; Rattus norvegicus, at concentrations of 4 millimolar and above, read-out: maximum stimulation of pyruvate oxidation): 170%
- minimal effective concentration ([2]; Rattus norvegicus, in vitro, read-out: threshold concentration for stimulation of pyruvate oxidation): ~250 µM
- rate of glucose oxidation ([3]; 2 millimolar in perfusate, normal rate 1.27+ 0.32, mean of 9 observations): 4.77 µmol/h

Compound: COc1ccc([C@H](N)C(N)=O)cc1 [L(+)-2-(4-methoxyphenyl)glycinamide]
- effect on PDHa/PDHt ratio (predicted, 'will be') [1]: significantly increased
- effect on pyruvate oxidation (predicted, 'will be found') [2]: stimulate pyruvate oxidation

Compound: COc1ccc([C@H](N)C(=O)O)cc1 [L(+)-2-(4-methoxyphenyl)glycine, calcium salt]
- effects on myocardial pyruvate uptake, blood flow, oxygen consumption and FFA uptake (predicted, 'will be found') [4]: effects similar to L(+)-2-(4-hydroxyphenyl)glycine

Compound: COc1ccc([C@H](N)C(=O)[O-])cc1.[K+] [L(+)-2-(4-methoxyphenyl)glycine, potassium salt]
- effect on PDHa/PDHt ratio (predicted, 'will be') [1]: significantly increased

Compound: COc1ccc([C@H](N)C(=O)O)cc1 [L(+)-2-(4-methoxyphenyl)glycine]
- activation at 500 µM ([2]; Rattus norvegicus): 79%
- effect on rate of glucose oxidation (predicted, 'will be') [3]: significantly increased

Compound: COC(=O)[C@@H](N)c1ccc(O)cc1 [Methyl L(+)-2-(4-hydroxyphenyl)glycinate]
- PDHa/PDHt Ratio, Compound ([1]; p.o. (oral)): 0.42
- PDHa/PDHt Ratio, Compound ([1]; s.c. (subcutaneous)): 0.69
- activation at 500 µM ([2]; Rattus norvegicus): 89%

Compound: CCOC(=O)[C@@H](N)c1ccc(OC)cc1 [ethyl L(+)-2-(4-methoxyphenyl)glycinate]
- effect on pyruvate oxidation (predicted, 'will be found') [2]: stimulate pyruvate oxidation

Compound: COC(=O)[C@@H](N)c1ccc(O)cc1.Cl [methyl L(+)-2-(4-hydroxyphenyl)glycinate hydrochloride]
- effects on myocardial pyruvate uptake, blood flow, oxygen consumption and FFA uptake (predicted, 'will be found') [4]: effects similar to L(+)-2-(4-hydroxyphenyl)glycine

Compound: COC(=O)[C@@H](N)c1ccc(OC)cc1 [methyl L(+)-2-(4-methoxyphenyl)glycinate gluconate]
- effect on PDHa/PDHt ratio (predicted, 'will be') [1]: significantly increased

Compound: CCCCOC(=O)[C@@H](N)c1ccc(OC)cc1 [n-butyl L(+)-2-(4-methoxyphenyl)glycinate]
- effect on pyruvate oxidation (predicted, 'will be found') [2]: stimulate pyruvate oxidation

Compound: CCCOC(=O)[C@@H](N)c1ccc(O)cc1.Cl [n-propyl L(+)-2-(4-hydroxyphenyl)glycinate hydrochloride]
- effect on rate of glucose oxidation (predicted, 'will be') [3]: significantly increased
